Earlier results, collected in US20220125811A1, “INJECTABLE COMPOSITION FOR INDUCING LIPOLYSIS AND METHOD USING THE SAME” (priority 2020, published 2022).

Conditions: half saline; 5 mEq sodium bicarbonate (8.4%); 6 cc multivitamin formulation; 10 cc amino acid formulation

osmolarity of the ingredient amount used in the calculation: 10 mOsm
Compound: O=C([O-])O.[Na+] [sodium bicarbonate (8.4%), sodium bicarbonate]
